Measured values published in ChEMBL document CHEMBL3885861, “Open TG-GATES”.

Species: Rattus norvegicus
Assay: Open TG-GATES - Regimen: Single
Type: toxicity, organism-based, Sprague-Dawley
Parameters: regimen Single, gender Male, age 6 weeks
Settings: in vivo, po, route gavage; for APTT / Bas / Eos / Fbg / Hb / Ht / Lym / MCH / MCHC / MCV / Mono / Neu / PT / Plat / RBC / Ret / WBC: tissue Blood; for KIDNEY_TOTAL: tissue Kidney; for LIVER: tissue Liver; for A/G / ALP / ALT / AST / BUN / CRE / Ca / Cl / DBIL / GLC / IP / K / LDH / Na / PL / RALB / TBIL / TC / TG / TP / gamma-GTP: tissue Plasma
[1] = 100 mg/kg, 3 h, dose level Middle
[2] = 100 mg/kg, 6 h, dose level Middle
[3] = 100 mg/kg, 9 h, dose level Middle
[4] = 100 mg/kg, 24 h, dose level Middle
[5] = 500 mg/kg, 3 h, dose level High
[6] = 500 mg/kg, 6 h, dose level High
[7] = 500 mg/kg, 9 h, dose level High
[8] = 500 mg/kg, 24 h, dose level High

## CN(CCOc1ccc(CC2SC(=O)NC2=O)cc1)c1ccccn1.O=C(O)/C=C\C(=O)O (stereo not drawn) [ROSIGLITAZONE MALEATE]
[1]
  TERMINAL_BW: 205.4 g
  APTT: 16.2 s
  Bas: 0%
  Eos: 1%
  Fbg: 217.8 mg/dL
  Hb: 13 g/dL
  Ht: 39.5%
  Lym: 77.2%
  MCH: 21.3 pg
  MCHC: 32.8%
  MCV: 65 fL
  Mono: 7.8%
  Neu: 14.4%
  PT: 12.2 s
  Plat: 119.4 x10_4/uL
  RBC: 607.6 x10_4/ul
  Ret: 8.6%
  WBC: 105 x10_2/uL
  KIDNEY_TOTAL: 0.8 g
  LIVER: 9.5 g
  A/G: 2.2
  ALP: 1374 IU/L
  ALT: 36.6 IU/L
  AST: 74.6 IU/L
  BUN: 13.4 mg/dL
  CRE: 0.4 mg/dL
  Ca: 11.6 mg/dL
  Cl: 104 meq/L
  DBIL: 0.014 mg/dL
  GLC: 189.2 mg/dL
  IP: 8.9 mg/dL
  K: 4.4 meq/L
  LDH: 107.8 IU/L
  Na: 139.6 meq/L
  PL: 133.2 mg/dL
  RALB: 3.6 g/dL
  TBIL: 0.046 mg/dL
  TC: 78.8 mg/dL
  TG: 75.6 mg/dL
  TP: 5.3 g/dL
  gamma-GTP: 0.8 IU/L
[2]
  TERMINAL_BW: 206.8 g
  APTT: 16.7 s
  Bas: 0%
  Eos: 1%
  Fbg: 221.8 mg/dL
  Hb: 12.4 g/dL
  Ht: 37.5%
  Lym: 67.4%
  MCH: 20.7 pg
  MCHC: 33.1%
  MCV: 62.5 fL
  Mono: 9.8%
  Neu: 22%
  PT: 12.4 s
  Plat: 124.2 x10_4/uL
  RBC: 600 x10_4/ul
  Ret: 8.9%
  WBC: 105.2 x10_2/uL
  KIDNEY_TOTAL: 0.8 g
  LIVER: 9 g
  A/G: 2.3
  ALP: 1392.2 IU/L
  ALT: 33.6 IU/L
  AST: 64 IU/L
  BUN: 10.2 mg/dL
  CRE: 0.4 mg/dL
  Ca: 11.1 mg/dL
  Cl: 104.2 meq/L
  DBIL: 0.016 mg/dL
  GLC: 179.2 mg/dL
  IP: 10 mg/dL
  K: 4.5 meq/L
  LDH: 82.2 IU/L
  Na: 138.4 meq/L
  PL: 127.8 mg/dL
  RALB: 3.6 g/dL
  TBIL: 0.042 mg/dL
  TC: 73 mg/dL
  TG: 64.2 mg/dL
  TP: 5.2 g/dL
  gamma-GTP: 1 IU/L
[3]
  TERMINAL_BW: 198.2 g
  APTT: 16.2 s
  Bas: 0%
  Eos: 1%
  Fbg: 217 mg/dL
  Hb: 12.7 g/dL
  Ht: 38.5%
  Lym: 75.6%
  MCH: 22.1 pg
  MCHC: 32.9%
  MCV: 67.1 fL
  Mono: 4.8%
  Neu: 19%
  PT: 12.3 s
  Plat: 118.4 x10_4/uL
  RBC: 574.2 x10_4/ul
  Ret: 8.9%
  WBC: 85 x10_2/uL
  KIDNEY_TOTAL: 0.8 g
  LIVER: 8.3 g
  A/G: 2.5
  ALP: 1125.2 IU/L
  ALT: 28 IU/L
  AST: 62 IU/L
  BUN: 11.2 mg/dL
  CRE: 0.4 mg/dL
  Ca: 11.7 mg/dL
  Cl: 103.8 meq/L
  DBIL: 0.014 mg/dL
  GLC: 190.6 mg/dL
  IP: 11.3 mg/dL
  K: 4.3 meq/L
  LDH: 120.2 IU/L
  Na: 140.4 meq/L
  PL: 122.2 mg/dL
  RALB: 3.9 g/dL
  TBIL: 0.046 mg/dL
  TC: 70.2 mg/dL
  TG: 49.6 mg/dL
  TP: 5.5 g/dL
  gamma-GTP: 0.6 IU/L
[4]
  TERMINAL_BW: 224.2 g
  APTT: 16.3 s
  Bas: 0%
  Eos: 0.8%
  Fbg: 213.2 mg/dL
  Hb: 12.4 g/dL
  Ht: 38%
  Lym: 68.8%
  MCH: 20.9 pg
  MCHC: 32.7%
  MCV: 63.8 fL
  Mono: 9.4%
  Neu: 21.2%
  PT: 11.5 s
  Plat: 120.6 x10_4/uL
  RBC: 596.2 x10_4/ul
  Ret: 7.7%
  WBC: 74.8 x10_2/uL
  KIDNEY_TOTAL: 0.6 g
  LIVER: 11.2 g
  A/G: 2.7
  ALP: 1341.6 IU/L
  ALT: 40.2 IU/L
  AST: 71.2 IU/L
  BUN: 16.6 mg/dL
  CRE: 0.4 mg/dL
  Ca: 11.3 mg/dL
  Cl: 104.4 meq/L
  DBIL: 0.016 mg/dL
  GLC: 187.6 mg/dL
  IP: 7.8 mg/dL
  K: 4.5 meq/L
  LDH: 123.8 IU/L
  Na: 140 meq/L
  PL: 161.6 mg/dL
  RALB: 3.8 g/dL
  TBIL: 0.032 mg/dL
  TC: 90.6 mg/dL
  TG: 127.2 mg/dL
  TP: 5.3 g/dL
  gamma-GTP: 1 IU/L
[5]
  TERMINAL_BW: 202.9 g
  APTT: 16.4 s
  Bas: 0%
  Eos: 0.6%
  Fbg: 224.2 mg/dL
  Hb: 13 g/dL
  Ht: 39.4%
  Lym: 77.6%
  MCH: 21.2 pg
  MCHC: 33.1%
  MCV: 64.1 fL
  Mono: 7.8%
  Neu: 14.2%
  PT: 12.3 s
  Plat: 129.2 x10_4/uL
  RBC: 613.8 x10_4/ul
  Ret: 9.1%
  WBC: 85.4 x10_2/uL
  KIDNEY_TOTAL: 0.6 g
  LIVER: 8.9 g
  A/G: 2.3
  ALP: 1535.8 IU/L
  ALT: 35.8 IU/L
  AST: 69.6 IU/L
  BUN: 15 mg/dL
  CRE: 0.5 mg/dL
  Ca: 11.6 mg/dL
  Cl: 102.2 meq/L
  DBIL: 0.01 mg/dL
  GLC: 185.2 mg/dL
  IP: 10.5 mg/dL
  K: 4.2 meq/L
  LDH: 76.8 IU/L
  Na: 140.4 meq/L
  PL: 137 mg/dL
  RALB: 3.9 g/dL
  TBIL: 0.036 mg/dL
  TC: 84.2 mg/dL
  TG: 78 mg/dL
  TP: 5.6 g/dL
  gamma-GTP: 1 IU/L
[6]
  TERMINAL_BW: 206.5 g
  APTT: 16.5 s
  Bas: 0%
  Eos: 1%
  Fbg: 217 mg/dL
  Hb: 13.2 g/dL
  Ht: 40%
  Lym: 62.6%
  MCH: 21 pg
  MCHC: 32.9%
  MCV: 63.8 fL
  Mono: 11.6%
  Neu: 24.8%
  PT: 11.8 s
  Plat: 118.4 x10_4/uL
  RBC: 626.8 x10_4/ul
  Ret: 9.7%
  WBC: 75.4 x10_2/uL
  KIDNEY_TOTAL: 0.7 g
  LIVER: 8.6 g
  A/G: 2.4
  ALP: 1138.8 IU/L
  ALT: 30.8 IU/L
  AST: 69 IU/L
  BUN: 10 mg/dL
  CRE: 0.5 mg/dL
  Ca: 11 mg/dL
  Cl: 104 meq/L
  DBIL: 0.014 mg/dL
  GLC: 176.4 mg/dL
  IP: 10.6 mg/dL
  K: 4 meq/L
  LDH: 70.4 IU/L
  Na: 139.6 meq/L
  PL: 140.4 mg/dL
  RALB: 3.9 g/dL
  TBIL: 0.042 mg/dL
  TC: 89.2 mg/dL
  TG: 69.2 mg/dL
  TP: 5.5 g/dL
  gamma-GTP: 1 IU/L
[7]
  TERMINAL_BW: 203.4 g
  APTT: 17 s
  Bas: 0%
  Eos: 0.8%
  Fbg: 211.4 mg/dL
  Hb: 12.4 g/dL
  Ht: 37.6%
  Lym: 77.4%
  MCH: 21.5 pg
  MCHC: 33%
  MCV: 65.2 fL
  Mono: 5.2%
  Neu: 16.6%
  PT: 12.4 s
  Plat: 128.2 x10_4/uL
  RBC: 577 x10_4/ul
  Ret: 9.1%
  WBC: 77.4 x10_2/uL
  KIDNEY_TOTAL: 0.6 g
  LIVER: 7.9 g
  A/G: 2.6
  ALP: 1267.6 IU/L
  ALT: 28.2 IU/L
  AST: 65.4 IU/L
  BUN: 12 mg/dL
  CRE: 0.4 mg/dL
  Ca: 11.8 mg/dL
  Cl: 104.2 meq/L
  DBIL: 0.016 mg/dL
  GLC: 180.8 mg/dL
  IP: 10.9 mg/dL
  K: 4.6 meq/L
  LDH: 94.6 IU/L
  Na: 139.8 meq/L
  PL: 114.8 mg/dL
  RALB: 3.9 g/dL
  TBIL: 0.048 mg/dL
  TC: 63.6 mg/dL
  TG: 68.6 mg/dL
  TP: 5.4 g/dL
  gamma-GTP: 0.4 IU/L
[8]
  TERMINAL_BW: 222.1 g
  APTT: 16.4 s
  Bas: 0%
  Eos: 1.2%
  Fbg: 212.6 mg/dL
  Hb: 12.3 g/dL
  Ht: 37.6%
  Lym: 65.6%
  MCH: 21.3 pg
  MCHC: 32.7%
  MCV: 65.1 fL
  Mono: 8.4%
  Neu: 24.8%
  PT: 12.1 s
  Plat: 128.4 x10_4/uL
  RBC: 578.4 x10_4/ul
  Ret: 8.4%
  WBC: 96 x10_2/uL
  KIDNEY_TOTAL: 0.7 g
  LIVER: 10.3 g
  A/G: 2.7
  ALP: 1526.8 IU/L
  ALT: 34.6 IU/L
  AST: 65.2 IU/L
  BUN: 18 mg/dL
  CRE: 0.4 mg/dL
  Ca: 11.1 mg/dL
  Cl: 104.2 meq/L
  DBIL: 0.02 mg/dL
  GLC: 183.8 mg/dL
  IP: 7.9 mg/dL
  K: 4.6 meq/L
  LDH: 87.6 IU/L
  Na: 140.4 meq/L
  PL: 127 mg/dL
  RALB: 3.9 g/dL
  TBIL: 0.03 mg/dL
  TC: 70.2 mg/dL
  TG: 113.6 mg/dL
  TP: 5.3 g/dL
  gamma-GTP: 1 IU/L
